Laboratory results: patent US11091749B2, “Deimmunized lysostaphin and methods of use” (TRUSTEES OF DARTMOUTH COLLEGE, priority 2014, dated 2021)

Tests used:
S. aureus 6445 = experiment: MIC assay; assay type: cell-based, Staphylococcus aureus; conditions: biological duplicates
S. aureus strain SA113 = experiment: MIC activity relative to LST^WT; assay type: cell-based, Staphylococcus aureus; conditions: % fold dilution relative to wild type
Protocol: LST and its derivatives were secreted from P. pastoris. Briefly, recombinant Pichia strains were cultured in a 2.5 L bioreactor (Applicon Biotechnology), and the proteins were captured from the supernatant by polyethylene glycol-6000 (PEG-6000) precipitation and purified to homogeneity by SP SEPHAROSE F.F. cation exchange chromatography. Endotoxin was removed from the protein preparation by TRITON-X114 extraction (Liu, et al. (1997) Clin. Biochem. 30:455-63). Protein expression levels were estimated by densitometry analysis of SDS-PAGE gels.

[1] = Thermostability by differential scanning fluorimetry; assay type: physicochemical
Protocol: The relative thermostability of the lysostaphin variants was determined by differential scanning fluorimetry, as previously described (Niesen, et al. (2007) Nat. Protocols 2:2212-2221). Proteins and SYPRO Orange were diluted in PBS (final concentrations of 100 μg/ml and 5× in 20 μl reaction volume, respectively), and fluorescence was quantified at 1-degree increments from 25 to 94° C. using an Applied Biosystems ABI 7500 fast real-time PCR system. The reactions were performed using PCR Plates for Fast Thermocyclers (VWR; Radnor, Pa.). Fluorescence was quantified using the preset TAMRA parameters. Melting temperatures were determined by data analysis with the ‘DSF Analysis v3.0.xlsx’ EXCEL sheet and GraphPad Prism v.6.02 software.

MRSA strain USA400 = experiment: Efficacy of F13 in immunized mice, MRSA challenge; assay type: in vivo, DR4 HLA transgenic mice; conditions: 500 μg i.v. 1 h after 2×10^8 MRSA i.p.
Protocol: The immunogenicity of the F13 variant was compared to wild-type LST in DR4 HLA transgenic mice, i.e., mice bearing partially humanized immune systems. 100 μg of wild-type LST or variant F13 were mixed with complete Freund's adjuvant and injected subcutaneously into DR4 mice. Fourteen days later, antibody titers were measured by ELISA. Variant F13 yielded more than 200-fold lower antibody titers compared to wild-type LST. To assess the impact of antibody titers on antibacterial efficacy, the mice were challenged with an intraperitoneal injection of 2×10^8 MRSA strain USA400, and 1 hour later the mice were treated with 500 μg wild-type LST, variant F13, or PBS, administered as a single bolus intravenous injection. Both mice receiving PBS sham treatments died as did both mice treated with wild-type LST. In contrast, both mice treated with variant F13 survived. Thus, the reduced immunogenicity of F13 conferred enhanced therapeutic efficacy in vivo.

S. aureus cells = experiment: Lytic assay using purified protein (SYTOX kinetic assay); assay type: cell-based, Staphylococcus aureus
Protocol: S. aureus cells were grown either to mid-log or to saturation in tryptic soy broth (TSB) at 37° C. with shaking. The cells were harvested by centrifugation and washed once in phosphate buffered saline (PBS: 2.7 mM KCl, 1.5 mM KH2PO4, 8.9 mM Na2HPO4, 136.9 mM NaCl, pH 7.4). The assay was performed in 96-well, black, clear bottom plates from Greiner Bio-One (Monroe, N.C.). The final (250 μl) reaction was composed of 10 μl of P. pastoris culture supernatant, S. aureus cells at OD600=1.5, and 5 μM SYTOX Green (Thermo Fisher Scientific; Waltham, Mass.), all in PBS. Data were collected using SPECTRAMAX GEMINI Fluorescence Microplate Reader (Molecular Devices; Sunnyvale, Calif.) using an excitation/emission of 504/523 nm, and rates were determined from the slope of the steepest linear portion of the trace. Each assay was performed with 500 ng of commercially-sourced lysostaphin (ssLys) as an internal control.
The activity of purified lysostaphin variants was examined using the SYTOX kinetic assay as previously described in Chapter 2, Section 3.2.6. 200 ng of purified enzyme (instead of culture supernatant) was used in each reaction.

[2] = P. pastoris expression level by SDS-PAGE; conditions: densitometry of SDS-PAGE gels
Protocol: After DH5a clones were confirmed for the presence of correct catalytic domain mutation by sequence analysis, the purified plasmid was digested with SacI High-Fidelity restriction enzyme prior to electroporation into P. pastoris strain GS115. The resulting transformants were grown on MD plates (1.34% yeast nitrogen base, 0.000004% biotin, 2% dextrose and 1% agar). For expression studies, clones were grown in BMGY media (1% yeast extract, 2% peptone, 1.34% yeast nitrogen base, 0.000004% biotin, 1% glycerol, 100 mM phosphate buffer, pH 6) at 30° C. in 500 ml shake flasks covered with four layers of cheese cloth for enhanced oxygen flow to the yeast. […] The purity of lysostaphin was determined using SDS-PAGE. The protein concentration was quantified using ND-1000 Spectrophotometer (NanoDrop Technologies; Wilmington, Del.). To ensure accuracy, protein absorbance measure was adjusted using the absorbance adjustment factor of 0.4 for both wild-type lysostaphin and its variants. Briefly, the adjustment factor was calculated as the inverse of the reported Abs 0.1% (=1 g/L) value (ProtParam, ExPASy).
The amount of protein used in each assay was estimated from SDS-PAGE gels. […] The gel was stained using GELCODE Blue Stain Reagent from Thermo Fisher Scientific (Carlsbad, Calif.) and bands quantified using Quantity Tools from Image Lab 5.1 software (Bio-Rad Laboratories; Hercules, Calif.). […]

## Wild-Type: wild-type lysostaphin (SEQ ID NO:49) produced in P. pastoris; aglycosylated Ser126Pro backbone in the design studies [reference compound]
S. aureus 6445
  MIC Strain 6445: 0.03 µg/mL
S. aureus strain SA113
  Activity (% WT): 100 % WT
[1]; SYPRO Orange, PBS
  Tm: 59.2 °C
[1]; biological duplicates
  Tm: 59.0 °C
MRSA strain USA400
  survival: died
S. aureus cells; 200 ng purified enzyme
  % Wild-Type Activity: 100%
S. aureus cells; biological duplicates
  % WT Lytic Rate: 100 ± 30%
[2]
  Expression Level (% WT): 100 % WT
